Measurements as given in US20250302972A1, “FORMULATION” (ENA Respiratory Pty Ltd, priority 2021, published 2025).

Tests used:
[1] = Solubility in deionised water; format: physicochemical; conditions: DI water; read-out: concentration at which fully soluble in deionised (DI) water
Method: All spray drying feed solutions were prepared in deionised (DI) water. […] All other excipient components (mannitol, trehalose and HPMC) were also shown readily soluble in the DI water.

SARS-CoV-2 [2] = test: A204 efficacy against SARS-CoV-2 in the hamster model - treatment; format: in vivo; conditions: 10 ug/ml in 100 ul, 8 hours post infection; to 7 dpi
SARS-CoV-2 [3] = test: A204 efficacy against SARS-CoV-2 in the hamster model - prophylaxis; format: in vivo
[4] = Stability IV: formulation pH at each time point; format: physicochemical
Method: Each compound was formulated in 0.9% w/w saline with addition of 0.1% w/w EDTA at about pH 5. The formulations were stored in the dark under accelerated conditions (40° C./75% RH) and reference formulations were stored at −80° C. At days 0, 9 and 28, samples were analysed by UHPLC and pH was measured.
The remaining ˜1 mL of solution in the clear glass HPLC vials was stored at 40° C./75% RH and was used to measure pH at each time point.
The formulation pH data recorded at each time point are compiled in Table 19. There was a general trend for the pH to increase with time but the effect was not pronounced.

human TLR2 (hTLR2) = target: T1, human TLR2 (hTLR2) (Homo sapiens, UniProt O60603); test: Activation of human TLR2 IV: HEK-BLUE-hTLR2 cells; format: cell-based; conditions: FIG. 4
T1 construct: host or cells: HEK293 (HEK-BLUE-hTLR2)
Method: HEK-BLUE-hTLR2 cells are designed for studying the stimulation of human TLR2 (hTLR2) by monitoring the activation of NF-kB. HEK-BLUE-hTLR2 cells are obtained by co-transfection of the hTLR2 and SEAP (secreted embryonic alkaline phosphatase) reporter genes into HEK293 cells. Stimulation with a TLR2 ligand activates NF-kB which induces the production of SEAP.
HEK-BLUE-hTLR2 cells were purchased from InvivoGen (San Diego, CA, USA). Cells were grown in DMEM supplemented with 10% FCS, 100 U/ml penicillin, 100 ug/ml streptomycin and 2 mM L-glutamine, 100 μg/mL Normocin in the presence of selection antibiotic purchased from InvivoGen and passaged when 70% confluence was reached per manufacturer's recommendation. […]

T1 sequence (O60603 21-784): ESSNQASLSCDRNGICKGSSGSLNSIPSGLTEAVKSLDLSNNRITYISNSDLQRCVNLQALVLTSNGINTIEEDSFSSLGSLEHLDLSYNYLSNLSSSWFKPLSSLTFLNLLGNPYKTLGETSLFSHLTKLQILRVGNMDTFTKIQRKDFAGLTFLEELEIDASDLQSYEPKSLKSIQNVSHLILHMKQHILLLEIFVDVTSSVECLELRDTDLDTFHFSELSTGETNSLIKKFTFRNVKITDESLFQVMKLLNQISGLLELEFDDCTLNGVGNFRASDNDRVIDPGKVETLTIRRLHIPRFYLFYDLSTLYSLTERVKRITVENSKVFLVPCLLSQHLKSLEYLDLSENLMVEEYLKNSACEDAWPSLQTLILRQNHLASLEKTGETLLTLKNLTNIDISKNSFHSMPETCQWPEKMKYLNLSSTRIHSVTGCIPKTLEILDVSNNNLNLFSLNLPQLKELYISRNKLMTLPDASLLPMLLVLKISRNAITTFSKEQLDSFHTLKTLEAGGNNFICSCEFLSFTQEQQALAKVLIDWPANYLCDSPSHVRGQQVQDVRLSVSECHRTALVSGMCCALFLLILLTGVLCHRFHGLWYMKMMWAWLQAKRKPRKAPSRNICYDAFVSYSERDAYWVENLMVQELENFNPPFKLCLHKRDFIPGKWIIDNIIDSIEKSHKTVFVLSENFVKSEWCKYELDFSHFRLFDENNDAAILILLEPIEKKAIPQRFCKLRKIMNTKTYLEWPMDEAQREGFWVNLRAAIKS
T1 sequence (Q9Y2C9 32-796 partner): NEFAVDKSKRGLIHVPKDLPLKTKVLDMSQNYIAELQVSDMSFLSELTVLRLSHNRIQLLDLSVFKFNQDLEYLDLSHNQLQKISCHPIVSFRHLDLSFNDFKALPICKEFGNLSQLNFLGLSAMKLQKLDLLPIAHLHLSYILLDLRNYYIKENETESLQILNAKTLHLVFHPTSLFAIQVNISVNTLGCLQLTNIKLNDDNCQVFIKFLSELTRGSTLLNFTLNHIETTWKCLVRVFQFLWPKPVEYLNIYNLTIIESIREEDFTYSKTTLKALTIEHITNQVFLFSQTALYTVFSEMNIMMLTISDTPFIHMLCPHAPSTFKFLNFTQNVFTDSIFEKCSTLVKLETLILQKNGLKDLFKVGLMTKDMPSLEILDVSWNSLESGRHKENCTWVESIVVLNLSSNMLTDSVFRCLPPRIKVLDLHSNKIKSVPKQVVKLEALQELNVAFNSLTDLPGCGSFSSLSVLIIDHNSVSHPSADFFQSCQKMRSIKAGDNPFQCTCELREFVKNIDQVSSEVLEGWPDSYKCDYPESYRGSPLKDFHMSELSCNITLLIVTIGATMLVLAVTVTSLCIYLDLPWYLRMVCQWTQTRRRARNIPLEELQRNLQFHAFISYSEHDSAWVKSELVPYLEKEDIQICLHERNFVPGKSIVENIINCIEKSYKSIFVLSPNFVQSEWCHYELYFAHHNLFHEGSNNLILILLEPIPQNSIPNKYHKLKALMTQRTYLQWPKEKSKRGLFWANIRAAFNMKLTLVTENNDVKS

CCCCCCCCCCCCCCCC(=O)OCC[C@H](CSC[C@H](N)C(=O)N[C@@H](CO)C(=O)NCCOCCOCCOCCOCCOCCOCCOCCOCCOCCOCCOCCOCCOCCOCCOCCOCCOCCOCCOCCOCCOCCOCCOCCOCCOCCOCCOCCOCCC(=O)NCC(N)=O)OC(=O)CCCCCCCCCCCCCCC [A204]
solubility [1]: ≤ 2000 µg/mL
recovery of weight loss (SARS-CoV-2 [2]): recovered weight loss more rapidly than PBS treated
weight change during infection (SARS-CoV-2 [3]; 50 ug/ml in 100 ul intranasal 24 hours prior to infection): lost no weight
lung viral loads versus mock treated animals (SARS-CoV-2 [3]; 7 dpi): slightly lower
viral RNA level versus mock treated animals (fold lower) (SARS-CoV-2 [3]; throat swabs, 2 days post infection, RT-qPCR): 32 fold
formulation pH ([4]; 0-days): 5.0
formulation pH ([4]; 9-days, 40° C./75% RH): 5.2
formulation pH ([4]; 28-days, 40° C./75% RH): 5.2
activity at TLR2 (human TLR2 (hTLR2)): significant activity at TLR2
